In patent US20230064292A1, “METHODS OF TREATING PSMA-POSITIVE CANCER USING RADIONUCLIDE THERAPY” (priority 2020, published 2023):

Columns and labels:
[1] = tested on: PSMA-expressing PC3-PIP cells; test: Cellular uptake and internalization in PSMA-expressing PC3-PIP cells; assay type: cell-based
Text: The PSMA binding scaffold of PSMA binds irreversibly to the extracellular enzymatic domain of PSMA leading to rapid internalization by PSMA-expressing cancer cells. Tumor cell uptake of CTT1403 is ˜84% after just 2½ hours (FIG. 1), compared to less than 40% tumor cell uptake of ^177Lu-PSMA-617 (structure shown below), in PSMA-expressing PC3-PIP cells.
Given that 99% of cell bound CTT1403 is internalized, compared to just 15% of ^177Lu-PSMA-617, targeting by CTT1403 is expected to confer a significant therapeutic advantage. This greater uptake will allow treatment of smaller tumors for a longer time. Both irreversible binding and cellular internalization increases exposure of target tissue to the therapeutic agent. Greater accumulation in the target tissue will permit a lower efficacious dose and/or dosing frequency, thus reducing a patient's total clinical exposure to the radionuclide and improving the therapeutic index.

[2] = reported value; cited from earlier work
[3] = 177Lu-PSMA-617 (7.4 GBq), Violet et al; cited from earlier work
[4] = tested on: tumor; settings: cited from earlier work
[5] = previous dosimetry studies in patients; cited from earlier work
[6] = tested on: bone metastases in prostate cancer; settings: palliative treatment of bone metastases in prostate cancer; cited from earlier work
[7] = 177Lu-PSMA-617 (7.4 GBq), Violet et al

In the case of `O=C([O-])CN1CCN(CC(=O)[O-])CCN(CC(=O)NCC2CCC(C(=O)N[C@@H](Cc3ccc4ccccc4c3)C(=O)NCCCC[C@H](NC(=O)N[C@@H](CCC(=O)O)C(=O)O)C(=O)O)CC2)CCN(CC(=O)[O-])CC1.[177Lu+3]` (stereo partly shown) [177Lu-PSMA-617], the “cell bound agent that is internalized” value ([1]; PSMA-expressing PC3-PIP cells) is listed as 15%, the Tumor cell uptake ([1]; after 2½ hours, PSMA-expressing PC3-PIP cells (FIG. 1)) is listed as “less than 40%” and the “half-life during the elimination phase” value [2] is listed as 10.8 ± 2.5 h. For the same compound, the “initial half-life during the distribution phase” value [2] was 9.6 ± 5.4 min, the “Kidney dose, Dose Gy/GBq” value [3] was 0.77 Gy/GBq and the “Kidney dose, Mean Dose for (Gy)” value [3] was 3.2 Gy. For the same compound, the “Tumor (PSA < 50%), Dose Gy/GBq” value [4, 7] was 1.41 Gy/GBq, the “Tumor (PSA < 50%), Mean Dose for (Gy)” value [4, 7] was 10.4 Gy and the “Tumor (PSA ≥ 50%), Dose Gy/GBq” value [4, 7] was 1.91 Gy/GBq. For the same compound, the “Tumor (PSA ≥ 50%), Mean Dose for (Gy)” value [4, 7] was 14.1 Gy, the “tumor dose delivered that is associated with efficacy (reduction of circulating PSA)” value ([4]; over several cycles of therapy, published studies) was 10-14 Gy and the “potential dose limited organs” value [5] was “salivary glands, kidneys and bone marrow”.
For `[Cl][223Ra][Cl]` [Radium-223 chloride], the “average increase in survival” value [6] is given as 3-4 months.
